Source: PMC5338263, “GS-5734 and its parent nucleoside analog inhibit Filo-, Pneumo-, and Paramyxoviruses” (Scientific Reports, 2017)
Entries after “also recorded” stand apart in the source; their conditions may differ. Where two headings read alike, the source gives them in different places.

Key:
NiV Rec. M-Luc2AM [1] = test: microbe, parasite or virus in culture; conditions: Henipavirus nipahense, HeLa
CCHF Rec. IbAr 10200 = test: organism not typed; type: cell-based, Crimean Congo Hemorrhagic Fever virus
RSV Rec. rgRSV224 (A2) = test: microbe, parasite or virus in culture; conditions: human respiratory syncytial virus, HeLa
EBOV Rec. Mayinga-Gluc = test: microbe, parasite or virus in culture; conditions: Zaire ebolavirus, Huh-7
EBOV Rec. Makona-ZSG [2] = system: EBOV Rec. Makona-ZSG
MV Rec. rMV^EZGFP(3) [3] = test: microbe, parasite or virus in culture; conditions: Measles morbillivirus, HeLa
MV Rec. rMV^EZGFP(3) [4] = system: MV Rec. rMV^EZGFP(3)
[5] = system: EBOV Rec. Makona-ZSG (Ebola virus); test: in vitro; conditions: human
TBEV Hypr = test: microbe, parasite or virus in culture; conditions: Tick-borne encephalitis virus, A549
hPIV3 Rec. JS-GFP = test: microbe, parasite or virus in culture; conditions: Human respirovirus 3, HeLa
[6] = system: EBOV Rec. Mayinga-GFP (Ebola virus); test: in vitro; conditions: human
[7] = system: NiV Rec. M-GFP2AM (Nipah virus); test: in vitro; conditions: human
RVFV Rec. ZH501-GFP = test: microbe, parasite or virus in culture; type: cell-based, Rift Valley Fever virus
NiV M-1999 [8] = test: microbe, parasite or virus in culture; conditions: Henipavirus nipahense
DenV = conditions: not tested in this paper, no reference given; cited from earlier work
AHFV 200300001 = test: organism not typed; conditions: A549
HCV = conditions: not tested in this paper, no reference given; cited from earlier work
[9] = system: RSV Rec. rgRSV224 (A2) (respiratory syncytial virus); test: in vitro; conditions: human
NiV M-1999 [10] = system: NiV M-1999
[11] = system: MV Rec. rMV^EZGFP(3) (Measles virus); test: in vitro; conditions: human
[12] = system: EBOV Makona (Ebola virus); test: in vitro; conditions: human
[13] = system: hPIV3 Rec. JS-GFP (parainfluenza type 3 virus); test: in vitro; conditions: human
NiV M-1999 (Nipah virus) = test: in vitro; conditions: human
NiV Rec. M-GFP2AM [14] = system: NiV Rec. M-GFP2AM
[15] = Cell viability assay (CellTiter-Glo 2.0), HeLa; conditions: human, uninfected HeLa cells
MuV IA 2006 = test: microbe, parasite or virus in culture; conditions: Mumps orthorubulavirus, HeLa
EBOV Makona [16] = system: EBOV Makona
MARV Rec. Bat371-GFP = test: organism not typed; conditions: Huh-7
EBOV Makona [17] = test: microbe, parasite or virus in culture; conditions: Zaire ebolavirus, Macrophage
[18] = system: EBOV Rec. Mayinga-Gluc (Ebola virus); test: in vitro; conditions: human
NiV Rec. M-GFP2AM [19] = test: microbe, parasite or virus in culture; conditions: Henipavirus nipahense, HeLa
NiV Rec. M-Luc2AM [20] = system: NiV Rec. M-Luc2AM
EBOV Rec. Mayinga-GFP = test: microbe, parasite or virus in culture; conditions: Zaire ebolavirus, Huh-7
[21] = system: NiV Rec. M-Luc2AM (Nipah virus); test: in vitro; conditions: human
NiV B-2004 = test: microbe, parasite or virus in culture; conditions: Henipavirus nipahense
LASV Josiah = test: microbe, parasite or virus in culture; conditions: Mammarenavirus lassaense, Huh-7
[22] = system: MARV Rec. Bat371-GFP (Marburg virus); test: in vitro; conditions: human
OHFV Bogoluvovska = test: microbe, parasite or virus in culture; conditions: Omsk hemorrhagic fever virus, A549
EBOV Rec. Makona-ZSG [23] = test: microbe, parasite or virus in culture; conditions: Zaire ebolavirus, Huh-7
[24] = system: reporter and wild-type filo-, pneumo-, and paramyxoviruses

Question: With `CCC(CC)COC(=O)[C@H](C)N[P@](=O)(OC[C@H]1O[C@@](C#N)(c2ccc3c(N)ncnn23)[C@H](O)[C@@H]1O)Oc1ccccc1` [GS-5734] as the compound, how does the EC50 (NiV Rec. M-Luc2AM [1]) read?
Answer: The EC50 was 44.9 ± 1.8 nM.

Question: What about the EC90 (NiV Rec. M-Luc2AM [1]) of the same compound?
Answer: Its EC90 is 126 nM.

Question: What about the EC50 (CCHF Rec. IbAr 10200) of the same compound?
Answer: Its EC50 is “minimal to no antiviral activity; also recorded: No inhibition”.

Question: What about the EC50 (CCHF Rec. IbAr 10200; Huh-7) of the same compound?
Answer: Its EC50 is over 10000 nM.

Question: And the EC50 (RSV Rec. rgRSV224 (A2))?
Answer: Its EC50 is 21.1 ± 1.1 nM.

Question: What about the EC90 (RSV Rec. rgRSV224 (A2)) of the same compound?
Answer: The EC90 was 59 nM.

Question: And the EC50 (EBOV Rec. Mayinga-Gluc)?
Answer: Its EC50 is 20.7 nM.

Question: And the EC90 (EBOV Rec. Mayinga-Gluc)?
Answer: Its EC90 is 53 nM.

Question: What about the EC50 (EBOV Rec. Makona-ZSG [2]) of the same compound?
Answer: The EC50 was 14 nM.

Question: What about the EC50 (MV Rec. rMV^EZGFP(3) [3]) of the same compound?
Answer: The EC50 was 36.5 ± 28 nM.

Question: What about the EC90 (MV Rec. rMV^EZGFP(3) [3]) of the same compound?
Answer: Its EC90 is 73 nM.

Question: And the EC50 (MV Rec. rMV^EZGFP(3) [4])?
Answer: The EC50 was 37 nM.

Question: What about the selectivity ratio [5] of the same compound?
Answer: Its selectivity ratio is 714.

Question: And the EC90 (TBEV Hypr)?
Answer: The EC90 was 3500 nM.

Question: What about the EC50 (hPIV3 Rec. JS-GFP) of the same compound?
Answer: Its EC50 is 17.7 ± 3.7 nM.

Question: What about the EC90 (hPIV3 Rec. JS-GFP) of the same compound?
Answer: Its EC90 is 350 nM.

Question: And the selectivity ratio [6]?
Answer: The selectivity ratio was 151.

Question: What about the selectivity ratio [7] of the same compound?
Answer: The selectivity ratio was 286.

Question: And the EC50 (RVFV Rec. ZH501-GFP)?
Answer: The EC50 was “minimal to no antiviral activity; also recorded: No inhibition”.

Question: And the EC50 (RVFV Rec. ZH501-GFP; Rift Valley fever virus, Huh-7)?
Answer: Its EC50 is over 10000 nM.

Question: And the EC50 (NiV M-1999 [8])?
Answer: Its EC50 is 47 nM.

Question: What about the EC90 (NiV M-1999 [8]) of the same compound?
Answer: Its EC90 is 83 nM.

Question: And the inhibition of virus (DenV)?
Answer: The inhibition of virus was “inhibited”.

Question: What about the EC50 (AHFV 200300001) of the same compound?
Answer: The EC50 was 4150 ± 480 nM.

Question: And the EC90 (AHFV 200300001)?
Answer: Its EC90 is 17600 nM.

Question: And the inhibition of virus (HCV)?
Answer: Its inhibition of virus is “inhibited”.

Question: And the selectivity ratio [9]?
Answer: The selectivity ratio was 395.

Question: And the “reduction in virus yield” value (NiV M-1999 [10])?
Answer: The value was “greater than 4”.

Question: And the selectivity ratio [11]?
Answer: Its selectivity ratio is 224.

Question: And the selectivity ratio [12]?
Answer: The selectivity ratio was 666.

Question: And the selectivity ratio [13]?
Answer: Its selectivity ratio is 461.

Question: What about the selectivity ratio (NiV M-1999 (Nipah virus)) of the same compound?
Answer: The selectivity ratio was 180.

Question: And the EC50 (NiV Rec. M-GFP2AM [14])?
Answer: Its EC50 is 29 nM.

Question: And the CC50 at 72 h [15]?
Answer: The CC50 at 72 h was 8300 nM.

Question: What about the EC50 (MuV IA 2006) of the same compound?
Answer: The EC50 was 790 nM.

Question: What about the EC90 (MuV IA 2006) of the same compound?
Answer: Its EC90 is 3400 nM.

Question: And the EC50 (EBOV Makona [16])?
Answer: The EC50 was 3 nM.

Question: What about the “reduction in virus yield” value (EBOV Makona [16]) of the same compound?
Answer: Its value is “greater than 4”.

Question: What about the EC50 (MARV Rec. Bat371-GFP) of the same compound?
Answer: Its EC50 is 13.9 ± 0.3 nM.

Question: And the EC90 (MARV Rec. Bat371-GFP)?
Answer: Its EC90 is 47 nM.

Question: What about the EC50 (EBOV Makona [17]) of the same compound?
Answer: The EC50 was 3.4 nM.

Question: And the EC90 (EBOV Makona [17])?
Answer: Its EC90 is 19 nM.

Question: What about the selectivity ratio [18] of the same compound?
Answer: Its selectivity ratio is 476.

Question: And the EC50 (NiV Rec. M-GFP2AM [19])?
Answer: The EC50 was 28.7 nM.

Question: And the EC90 (NiV Rec. M-GFP2AM [19])?
Answer: Its EC90 is 53 nM.

Question: What about the EC50 (NiV Rec. M-Luc2AM [20]) of the same compound?
Answer: The EC50 was 45 nM.

Question: And the EC50 (EBOV Rec. Mayinga-GFP)?
Answer: Its EC50 is 66 nM.

Question: And the EC90 (EBOV Rec. Mayinga-GFP)?
Answer: Its EC90 is 203 nM.

Question: And the selectivity ratio [21]?
Answer: Its selectivity ratio is 184.

Question: What about the EC50 (NiV B-2004) of the same compound?
Answer: The EC50 was 32.4 ± 2.7 nM.

Question: And the EC90 (NiV B-2004)?
Answer: Its EC90 is 106 nM.

Question: And the EC50 (LASV Josiah)?
Answer: Its EC50 is 4490 ± 480 nM.

Question: And the EC90 (LASV Josiah)?
Answer: Its EC90 is 5100 nM.

Question: And the selectivity ratio [22]?
Answer: Its selectivity ratio is 714.

Question: And the EC90 (OHFV Bogoluvovska)?
Answer: The EC90 was 3900 nM.

Question: And the EC50 (EBOV Rec. Makona-ZSG [23])?
Answer: Its EC50 is 13.6 ± 1 nM.

Question: What about the EC90 (EBOV Rec. Makona-ZSG [23]) of the same compound?
Answer: Its EC90 is 45 nM.

Question: And the “EC50 lower than the 50% cytotoxic concentrations” value [24]?
Answer: Its value is at least 150 fold.

Question: And the “higher antiviral potency relative to Nuc” value [24]?
Answer: Its value is 10 to 100 fold.
